This is an account of results in US20190284192A1, “NITROGENOUS MACROCYCLIC COMPOUND, PREPARATION METHOD THEREFOR, PHARMACEUTICAL COMPOSITION AND APPLICATION THEREOF” (LUOXIN PHARMACEUTICAL (SHANGHAI) CO., LTD., priority 2016, published 2019).

Read-outs that look alike come from different tables or passages of the source.

In one data set the test system is MV-4-11 cells. As to the kind of experiment: Inhibitory effect on MV-4-11 cells (CellTiter-Glo). The conditions noted are these: Homo sapiens, read-out: MV-4-11. It counts as cell-based. A general note: ATP-based viability assays read luminescence as a measure of living cells.
Data set [1] in a line: Metabolic stability in mouse liver microsomes. It counts as in vitro ADME. The conditions noted are these: mouse liver microsomes 0.5 mg/mL, NADPH, 37° C.; for CLint scaled at 1 µM: pH 7.4, read-out: MLM_CLint. As for the experimental part: (§1) Determinations of the metabolic stability of the compound from the above embodiments, the detailed operation steps are as followed:
(§2) 1. Preparation of buffer C:
(§3) Buffer A: 1.0 L of 0.1 M potassium dihydrogen phosphate buffer (containing 1.0 mM EDTA);
(§4) Buffer B: 1.0 L of 0.1 M dipotassium hydrogen phosphate buffer (containing 1.0 mM EDTA);
(§5) Buffer C: 500 mL Buffer B was titrated with Buffer A to pH 7.4.
(§6) 2. 10 mM stock solution preparation:
(§7) 10 mM test compound: A certain amount of the test compound was weighed and dissolved in DMSO.
(§8) 10 mM control: 5.455 mg of ketanserin dissolved in 1 mL DMSO.
(§9) 3. Preparation of the drug solution:
(§10) 500 μM solution: 5 μL of 10 mM stock solution (see step 2) was added into 95 μL ACN;
(§11) 1.5 μM dosing solution (dissolved in liver microsome solution):
(§12) 18.75 μL of 20 mg/mL liver microsomes was added into 479.75 μL of Buffer C, then 1.5 μL of 500 μM solution was added and mixed gently by shaking.
(§13) 4. Preparation of 6 mM NADPH solution:
(§14) 15 mg NADPH was weighted, then added into 3 mL of buffer C to prepare a 6 mM NADPH solution.
(§15) 5. 30 µL of 1.5 μM dosing solution (see step 3) was added into the wells of the 96-well plate set at different time points (0 minutes, 5 minutes, 15 minutes, 30 minutes, 45 minutes), number of dulplicate sample is 2.
(§16) 6. Preparation of a 0 minutes sample: 135 μL ACN (with internal standard) was added to the 0 minutes well, followed by 15 µL of 6 mM NADPH solution.
(§17) 7. The 96-well plate containing 1.5 μM dosing solution and NADPH solution were preheated in a 37° C. water bath for 5 minutes.
(§18) 8. The 15 µL of 6 mM NADPH solution preheated was added into the wells set to 5 minutes, 15 minutes, 30 minutes, 45 minutes, then the reaction was initiated and started counting the time.
(§19) 10. The sample was vortexed for 10 min, and then centrifuged for 15 minutes on a centrifuge (Thermo Multifuge×3R) using 5594×g.
(§20) 11. 50 μL of the supernatant was taken from the centrifuged sample, transferred to a 96-well sample plate to which 100 μL of ultrapure water had already been added, mixed, and finally sent to LC-MS/MS for analysis.
(§21) Half time (T1/2)=0.693/K (K is the rate constant obtained by linear regression of the logarithm of the concentration as vertical coordinates and the culturing time as the abscissa)
(§22) 2. According to the equation formula bellow, Excel was used to plot the compound content versus reaction time, as well as half life calculation (min)
(§23) Y=(Y0−Plateau)×e^(−K*X)+Plateau
(§24) Y0 represents the compound content at 0 minutes; Y represents the compound content; X represents the time point; K represents degration rate constant of the compound; Plateau represents the lowest possible content of the compound (defined herein as 0).

For another data set, the target named is T1, BRD4 (BD1) (Homo sapiens, UniProt O60885).
T1 construct: Each member comprises two tandem bromodomains (BD1 and BD2) for recognizing the acetylated lysine residues
As to the kind of experiment: BRD4 (BD1) bromodomain binding, HTRF. The conditions noted are these: 2 h incubation at r.t.

The nature of data set [2]: Metabolic stability in human liver microsomes. It counts as in vitro ADME. The conditions noted are these: human liver microsomes 0.5 mg/mL, NADPH, 37° C.; for CLint scaled at 1 µM: pH 7.4, read-out: HLM_CLint. As for the experimental part: as §1, §2, §3, §4, §5, §6, §7, §8, §9, §10, §11, §12, §13, §14, §15, §16, §17, §18, §19, §20, §21, §22, §23, §24
On the technique in general: Microsomes from liver hold many membrane-bound enzymes, among them those of drug oxidation.

A further data set deals with T2, BRD4 (BD2) (Homo sapiens, UniProt O60885).
T2 construct: Each member comprises two tandem bromodomains (BD1 and BD2) for recognizing the acetylated lysine residues
As to the kind of experiment: BRD4 (BD2) bromodomain binding, HTRF. The following applies: 2 h incubation at r.t. (TR-FRET usually uses a lanthanide donor and a delayed reading to cut background.)

For a further data set, the system named is SU-DHL-6 cells. Nature of the data set: Inhibitory effect on SU-DHL-6 cells (CellTiter-Glo). Type of data set: cell-based. The following applies: Homo sapiens, read-out: SU-DHL-6. As for the experimental part: Determinations of the inhibition of the compounds from the above embodiments against SU-DHL-6 cells, the detailed operation steps are as followed:
The 1st Day: Seed the Cells on the Plate
1. The cells were verified that they were in good conditions by observation under microscope;
2. The cells were transferred to a centrifuge tubes, after centrifuged at 1000 rpm for 5 min, the supernatant was discarded;
3. The complete substrate (1640+10% FBS) was added, then blown and patted into single cell suspension, counted by Vi-cell cytometer, the cell suspension was adjusted to desired cell density by the complete medium.
4. The cells were inoculated into a 96 well plate, the cell number was 12000/well at 100 μL per well, 100 μL complete medium was added into the black control;
5. 37° C., 5% CO2 culture overnight.
The 2nd Day: Addition of the Drugs
1. 1000× Compound Plate Preparation
1.1. The test compound was prepared into 10 mM working solution by using DMSO. Then the STS was prepared into 2 mM working solution by using DMSO.
1.2. In the round bottom 96 wells plate, the column 2 of row A to H was added into 60 μL 10 mM test compound (or STS) working solution, columns 3-11 were added into 40 μL DMSO, 20 μL drug solution was pipetted from the column 2 to the column 3, blown and patted for a homogeneous mixture; then 20 μL solution was pipetted from the column 3 to the column 4, blown and patted for a homogeneous mixture, sequently, the drug was diluted by 3 times, 10 concentrations in total. The columns 1 and 12 were supplemented with 40 μL of DMSO.
2. Intermediate plate preparation
A sterile V-bottom 96 deep well plate was used and in each well, 495 μL FBS-free PRMI 1640 medium was added, then 5 μL of the diluted compound (or DMSO) in the 1000× compound plate was pipetted into corresponding position of the V-bottom 96 well plate, blown and patted evenly.
3.1. The cell plate was taken out from the incubator and was observed under microscope. The diluted compound or DMSO in the intermediate plate was added into the cell plate, 11 μL each well.
3.2. The cell was continued to be cultured at 37° C., 5% CO2 for 72 hours.
The 5th Day: CellTiter-Glo Detection of the Cell Activity
1. The CellTiter-Glo buffer and the reaction substrate were taken out from the refrigerator, after balanced to r.t., the buffer was poured into a brown bottle containing the substrate, the bottle was upside down to have the substrate powder sufficientaly dissolved.
2. The cell was observed under microscope; the cell plate was balanced to r.t.
3. The prepared CellTiter-Glo was added into the 96 well plate, at 100 μL/well.
4. The cell plate was placed on a shaker for 10 min, followed by standing at r.t. for 10 min.
5. A white seal film was attached to the bottom of the well plate, and the chemiluminescence signal of each well was detected by the Enspire microplate detector.
6. XLfit was used for data processing. Inhibition rate %=(d-c)/(d-b)×100, while d is the signal value of the DMSO treated group, c is the signal value of the compound treated group, b is signal value of the blank control that only containing medium and DMSO without cells. The data was fitted using the f (x)205[fit=(A+((B−A)/(1+((C/x)^∧D))))] equation in the XLfit software.

Data set [3] relates to MV-4-11 subcutaneous xenograft tumor. Nature of the data set: Anti-tumor efficacy in vivo, MV-4-11 subcutaneous xenograft model. The arrangement: species or system BALB/c nude mice. The following applies: intragastric QD*14.
Description: According to the growth of the cells, the treatment was passaged twice a week. When the cells are in the exponential growth phase, the cells are collected, counted, and inoculated.
Experimental protocol: 0.2 mL of cell suspension containing about 5×10^MV-4-11 cells (cell suspended in IMDM medium and added with 50% Matrigel) was inoculated subcutaneously into the right back of each mouse. Group administration was initiated when the average tumor volume reached approximately 136.94 mm^3 (day 15 post inoculation). Grouping method: Animals were weighed before dosing and tumor volume was measured. Grouping designed based on tumor volume.
The experimental indicator is to investigate whether tumor growth can be inhibited, delayed or cured. Tumor diameters were measured with vernier calipers three times a week. The formula for calculating tumor volume is: V=0.5×a×b^2, a and b represent the long and short diameters of the tumor, respectively. The antitumor effect of the compound was evaluated by T/C (%). T/C %=TRTV/CRTV×100% (TRTV: treatment group RTV; CRTV: negative comparative group RTV). The relative tumor volume RTV is calculated as RTV=Vt/V1. Where V1 is the measured tumor volume at the time of group administration (i.e., Day 1), and Vt is the tumor volume at each measurement.
The tumor volume and tumor size were analysed by statistical software. GraphPad Prism software was used for analyzation, p<0.05 is considered to have significant difference, p<0.01 is considered to have extremely significant difference.
Two-way Anova Bonferroni post-test is used to compare the tumor volume difference between the control group and the treatment group.
Data set [4] can be described thus: Body weight of MV-4-11 tumor-bearing mice during treatment. Type of data set: in vivo. The conditions noted are these: intragastric QD*14, ABBV-075 3, GSK762 15, 4009 10 mg/kg. As for the experimental part: The preparation and any revision of this experimental protocol are carried out in accordance with the evaluation criteria of the “Institute for Animal Care and Use (IACUC)” of Shanghai Chempartner Chemical Research Co., Ltd. The use and welfare of laboratory animals are carried out in accordance with the provisions of the Association for Assessment and Accreditation of Laboratory Animal Care (AAALAC). Animals are monitored daily for health and death. Routine examinations include observations of the effects of the test substance and the drug on the daily behavior of the animal such as behavioral activities, intake of water and feeds, weight change (three weights measured weekly), appearance signs or other anormal circumstance. The number of animal deaths and side effects in the group were recorded based on the number of animals in each group.

Where [5] appears, read: MV4-11, 72 hours, CellTiter-Glo.

Description for MV-4-11 cells: 2. The cells were transferred to a 15 mL centrifuge tube, after centrifuged at 1000 rpm for 5 min, the supernatant was discarded;
3. The complete medium (IMDM+10% FBS) was added, then blown and patted into single cell suspension, counted by Vi-cell cytometer, the cell suspension was adjusted to desired cell density by the complete medium.
4. The cells were inoculated into a 96 well plate, the cell number was 15000/well at 100 μL per well, 100 μL complete medium was added into the black control.
2. Intermediate plate areparation
6. XLfit was used for data processing. Inhibition rate %=(d−c)/(d−b)×100, while d is the signal value of the DMSO treated group, c is the signal value of the compound treated group, b is signal value of the blank control that only containing medium and DMSO without cells. The data was fitted using the f(x)205[fit=(A+((B−A)/(1+((C/x)^∧D))))] equation in the XLfit software.

Turning to `Cn1cc2c(c1C(N)=O)CCN(c1ccc(F)cc1)c1ccc(CS(C)(=O)=O)cc1-2` [Compound 4002, 6-(4-fluorophenyl)-2-methyl-9-(methylsulfonylmethyl)-2,4,5,6-tetrahydrobenzo[b]pyrrolo[3,4-d]azepin-3-carboxamide], the IC50 came to 1120 nM in the data set with MV-4-11 cells (setting [5]); 26 nM on BRD4 (BD1); 47 nM on BRD4 (BD2); 1930 nM with SU-DHL-6 cells (72 hours, CellTiter-Glo). The MLM_T1/2 in data set [1] is recorded as 23.42 min. The CLint scaled at 1 µM turned out to be 233 mL/min/kg in data set [1] and 45.5 mL/min/kg in data set [2]. In data set [2], this compound registered an HLM_T1/2 of 38.19 min.

Turning to `Cn1cc2c(c1C(N)=O)CC(=O)N(c1ccc(F)cc1)c1ccc(CS(C)(=O)=O)cc1-2` [Compound 4001, 6-(4-fluorophenyl)-2-methyl-9-(methylsulfonemethyl)-5-oxo-2,4,5,6-tetrahydrobenzo[b]pyrrolo[3,4-d]azepin-3-carboxamide], the IC50 was 1440 nM in the data set on MV-4-11 cells (setting [5]); 124 nM at BRD4 (BD1); 25 nM at BRD4 (BD2); 2000 nM in the data set with SU-DHL-6 cells (72 hours, CellTiter-Glo).

On to `CCNC(=O)C[C@@H]1N=C(c2ccc(Cl)cc2)c2cc(OC)ccc2-n2c(C)nnc21` [GSK762], for which the “anti-tumor effect on the MV-4-11 cell xenograft tumor mouse model” value in data set [3] (ABBV-075 3 mg/kg, GSK762 15 mg/kg, 4009 10 mg/kg) is recorded as “no significant anti-tumor effect”. Further, the “Average tumor weight, 15th day of treatement” value in data set [3] (ABBV-075 3, GSK762 15, 4009 10 mg/kg) is reported as 0.522 ± 0.11 g. For the same compound, the “Average RCBW, Treatment end Day 15” value in data set [4] (relative body weight change vs Day 1) is 5.07%. In addition, in data set [4] (x ± SEM), the “Average body weight, Treatment end Day 15” value came to 21.86 ± 0.38 g and the “Average body weight, Treatment start Day 1” value turned out to be 20.82 ± 0.40 g.

`CCS(=O)(=O)Cc1ccc2c(c1)-c1cn(C)c(=O)cc1CN=C2c1ccc(Cl)cc1` [Compound 4011, 7-(4-chlorophenyl)-10-((ethylsulfone)methyl)-2-methyl-2,5-dihydro-3H-benzo[c]pyrido[3,4-e]Azazale-3-ketone]: the IC50 amounted to 65 nM in the data set with MV-4-11 cells (setting [5]); 4 nM at BRD4 (BD1); 4 nM at BRD4 (BD2); 59 nM in the data set on SU-DHL-6 cells (72 hours, CellTiter-Glo). Besides, in data set [1], the MLM_T1/2 is on record as 1056.88 min. Moreover, the CLint scaled at 1 µM in data set [1] was 5.16 mL/min/kg; in data set [2], 1.54 mL/min/kg. For the same compound, the HLM_T1/2 in data set [2] turned out to be 1127.52 min.

With `Cn1cc2c(c1C(N)=O)CCN(c1ccc(F)cc1)c1ncc(F)cc1-2` [Compound 4005, 9-fluoro-6-(4-fluorophenyl)-2-methyl-2,4,5,6-tetrahydropyrido[2,3-b]pyrrolo[3,4-d]azepin-3-carboxamide], the IC50 in the data set with MV-4-11 cells (setting [5]) is more than 10000 nM; at BRD4 (BD1), 163 nM; at BRD4 (BD2), 550 nM; in the data set with SU-DHL-6 cells (72 hours, CellTiter-Glo), more than 10000 nM.

Turning to `Cc1sc2c(c1C)C(c1ccc(Cl)cc1)=N[C@@H](CC(=O)OC(C)(C)C)c1nnc(C)n1-2` [(+)-JQ1, reference compound], the IC50 was 248 nM with MV-4-11 cells (MV4-11, 72 h) and 198 nM in the data set on SU-DHL-6 cells (SU-DHL-6, 72 h).

Consider `Cn1cc2c(cc1=O)CN=C(c1ccc(F)cc1)c1ccc(CS(C)(=O)=O)cc1-2` [Compound 4007, 7-(4-Fluorophenyl)-2-methyl-10-(methylsulfonemethyl)-2H-benzo[c]pyrido[3,4-e]azepin-3(5H)-ketone], for which the IC50 in the data set with MV-4-11 cells (setting [5]) is 118 nM; on BRD4 (BD1), 6 nM; on BRD4 (BD2), 7 nM; with SU-DHL-6 cells (72 hours, CellTiter-Glo) it was 253 nM. For the same compound, the MLM_T1/2 in data set [1] was 815.54 min. The CLint scaled at 1 µM in data set [1] was determined as 6.69 mL/min/kg. In addition, in data set [2], the HLM_T1/2 result was “∞”.

As for `Cn1cc2c(c1C#N)CC(=O)N(c1ccc(F)cc1)c1ccc(CS(C)(=O)=O)cc1-2` [Compound 4003, 6-(4-Fluorophenyl)-2-methyl-9-(methylsulfonemethyl)-5-oxo-2,4,5,6-tetrahydrobenzo[b]pyrrolo[3,4-d]azepin-3-nitrile], the IC50 in the data set on MV-4-11 cells (setting [5]) turned out to be 1550 nM; on BRD4 (BD1), 148 nM; at BRD4 (BD2), 16 nM; with SU-DHL-6 cells (72 hours, CellTiter-Glo), 2040 nM.
